From PMC4036227 (Journal of medicinal chemistry, 2013)

Target: WT (S31) M2 proton channel (full length AM2 protein) (Influenza A virus, UniProt P0DOF5)
Test: biochemical
Details: read-out: WT % inhibition (TEVC)

Chain of WT (S31) M2 proton channel (full length AM2 protein) (P0DOF5 whole entry): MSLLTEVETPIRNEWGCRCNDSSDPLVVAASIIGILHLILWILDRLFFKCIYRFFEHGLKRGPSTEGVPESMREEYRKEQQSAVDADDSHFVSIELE

Question: How did the inhibition at 100 µM turn out when `COC(=O)[C@H](Cc1cnc[nH]1)NCC12CC3CC(CC(C3)C1)C2` [Compound 3] was run?
Answer: Its inhibition at 100 µM is 21%.
